These results are taken from patent US4644085A, “Rooperol and its derivates” (Rooperol (NA) NV, priority 1985, dated 1987).

SMILES strings stand for the structures. Values after ≈ are worked out from the molar mass of the structure shown. Some results are limits rather than exact numbers.

One series relates to cancer. The following applies: reported in EPO Patent Application No. 83103765.0; cited from earlier work.
In series [1] the test system is "LOOT'S" CELLS HUMAN ADENOCARCINOMA
Description: Inhibition of cell growth: "Loot's" cells human adenocarcinoma. In kind it is cell-based. The settings on record: 96 h, media, usually four days, read-out: MINIMUM INHIBITORY CONCENTRATIONS (RANGE) WHICH PRODUCE APPROXIMATELY 50% CELL GROWTH REDUCTION
The procedure: (§1) The cell cultures were grown under standard conditions at 37° C. in Eagle's Minimal Essential Medium (M.E.M., Gibco), with glutamine and non-essential amino acids, supplemented with 10% foetal calf serum (State Vaccine Institute, Cape Town). Cells for subcultures were obtained from 90-100% confluent cell cultures by trypsinisation with Ca^++ Mg^++ --free EDTA-Dulbecco Buffer, containing 0.25% trypsin. Trypsin was inactivated by placing the harvested cell suspension into M.E.M. containing 10% foetal calf serum. The cell suspensions were then suitably diluted to the final volume, depending on the number of cells obtained and the growth profile of the cell type. The diluted cell suspensions were then dispensed at the rate of 1.0 ml into prepared cell culture flasks containing 8.9 ml culture media. These cultures were incubated for 24 hours and the media changed before adding the test compounds.
(§2) The test compounds were dissolved in dimethylsulphoxide (Merck) and added at the rate of 0.1 ml to the media in a dilution to give the desired end concentration.
(§3) In each series of experiments, control cultures were treated with equivalent amounts of solvent without the test compound. The cultures were examined daily usually for a period of four days and cell growth and other cytopathic effects were records. Abnormal cell patterns and sizes were also determined during counting.
(vi) "Loots" cells Human Derived Adenocarcinoma

For a further series, the system named is MOUSE MELANOMA B16-BL6. Put plainly: Inhibition of cell growth: mouse melanoma B16-BL6. In kind it is cell-based. The settings on record: 96 h, media, usually four days, read-out: MINIMUM INHIBITORY CONCENTRATIONS (RANGE) WHICH PRODUCE APPROXIMATELY 50% CELL GROWTH REDUCTION
The method, then:
as §1, §2, §3
(ii) Mel B16 BL06 Mouse Melanoma

In a further series the test system is CHANG CO[…] No. CCL20.2. Put plainly: Inhibition of cell growth: Chang conjunctival. The following applies: 96 h, read-out: MINIMUM INHIBITORY CONCENTRATIONS (RANGE) WHICH PRODUCE APPROXIMATELY 50% CELL GROWTH REDUCTION
In kind it is cell-based. The method, then: as §1, §2, §3
(vii) Chang Chang Conjunctival cells

Series [2] deals with HUMAN CERVICAL CANCER HeLa ATCC No. CCL2. Put plainly: Inhibition of cell growth: human cervical cancer HeLa. In kind it is cell-based. The settings on record: 96 h, media, usually four days, read-out: MINIMUM INHIBITORY CONCENTRATIONS (RANGE) WHICH PRODUCE APPROXIMATELY 50% CELL GROWTH REDUCTION
The procedure: as §1, §2, §3
(iv) HeLa Human Cervical Cancer

Another series has as its system P27-HUMAN MESOTHELIOMA
Put plainly: Inhibition of cell growth: P27 human mesothelioma. The class given is cell-based. The settings on record: 96 h, media, usually four days, read-out: MINIMUM INHIBITORY CONCENTRATIONS (RANGE) WHICH PRODUCE APPROXIMATELY 50% CELL GROWTH REDUCTION
The procedure: as §1, §2, §3
(v) P27 Human Mesothelioma Cells

For a further series, the system named is MOUSE SARCOMA M(52)B. Description: Inhibition of cell growth: mouse sarcoma M(52)B. The class given is cell-based. The following applies: 96 h, media, usually four days, read-out: MINIMUM INHIBITORY CONCENTRATIONS (RANGE) WHICH PRODUCE APPROXIMATELY 50% CELL GROWTH REDUCTION
The method, then:
as §1, §2, §3
(i) M (52) B Mouse Sarcoma

For the next series, the system named is HUMAN […] HOC. Description: Inhibition of cell growth: human oesophagal carcinoma HOC. The following applies: 96 h, read-out: MINIMUM INHIBITORY CONCENTRATIONS (RANGE) WHICH PRODUCE APPROXIMATELY 50% CELL GROWTH REDUCTION
The class given is cell-based. The procedure:
as §1, §2, §3
(iii) HOC Human Oesophagal Carcinoma

Another series is described as follows: Acute toxicity in rats. The settings on record: rat, in vivo, po, P.O., single dose in vegetable oil, 7 days observation, read-out: MINIMUM TOLERATED SINGLE DOSE. The procedure: (§4) Some compounds were subjected to preliminary acute toxicity tests in mice and rats. Solutions or suspensions of the selected compounds were prepared in vegetable oil. The volumes administered were kept constant at 10.0 ml per kg. In each case equal numbers of male and female animals were treated with a single dose. All animals were observed over 7 days for signs of toxic and/or pharmacodynamic effects. Necropsies were performed on all surviving animals.

The next series in a line: Acute toxicity in mice. The following applies: mouse, in vivo, po, P.O., single dose in vegetable oil, 7 days observation, read-out: MINIMUM TOLERATED SINGLE DOSE. The procedure:
as §4

Regarding `OC[C@H]1O[C@@H](Oc2ccc(C#CC/C=C/c3ccc(O[C@@H]4O[C@H](CO)[C@@H](O)[C@H](O)[C@H]4O)c(O)c3)cc2O)[C@H](O)[C@@H](O)[C@@H]1O` [Hypoxoside, (E)-1,5-bis(3',4'-dihydroxyphenyl)pent-4-en-1-yne 4',4'-di-B-D-glucopyranoside], the anticancer activity entry in the series on cancer is on record as “has anticancer activity”.

Consider `Oc1ccc(C#CC/C=C/c2ccc(O)c(O)c2)cc1O` [Product 1, 3',3',4',4',-tetrahydroxyrooperol], for which the IC50 in [1] lay in the range of 12.5 to 25 µg/mL (≈ 44.3 to 88.6 µM); in the series with MOUSE MELANOMA B16-BL6, 10 to 25 µg/mL (≈ 35.4 to 88.6 µM); in the series on CHANG CO[…] No. CCL20.2, 20 to 25 µg/mL (≈ 70.8 to 88.6 µM); in series [2], 20 to 40 µg/mL (≈ 70.8 to 142 µM); with P27-HUMAN MESOTHELIOMA it was 10 to 25 µg/mL (≈ 35.4 to 88.6 µM); in the series on MOUSE SARCOMA M(52)B it was 12.5 to 25 µg/mL (≈ 44.3 to 88.6 µM). Besides, the IC50 in the series on HUMAN […] HOC was in the range of 25 to 50 µg/mL (≈ 88.6 to 177 µM).

Take `C=CCC#Cc1ccccc1` [Product 2]: the IC50 lay within 50 to 75 µg/mL (≈ 352 to 527 µM) in [2] and 50 to 100 µg/mL (≈ 352 to 703 µM) in the series on HUMAN […] HOC. Also, the MTD at 168 h in “Acute toxicity in rats” was 500 mg/kg; in “Acute toxicity in mice”, no less than 1000 mg/kg.

Consider `C(#Cc1ccccc1)C/C=C/c1ccccc1` [Product 3], for which the IC50 in series [2] was in the range of 40 to 60 µg/mL (≈ 183 to 275 µM); with P27-HUMAN MESOTHELIOMA it was 25 to 50 µg/mL (≈ 115 to 229 µM); in the series on MOUSE SARCOMA M(52)B, 50 to 75 µg/mL (≈ 229 to 344 µM); in the series with HUMAN […] HOC it was 25 to 50 µg/mL (≈ 115 to 229 µM). Also, the MTD at 168 h in the series “Acute toxicity in rats” was 1500 mg/kg; in the series “Acute toxicity in mice” it was 500 mg/kg.

Turning to `COc1ccc(C#CC/C=C/c2ccc(OC)cc2)cc1` [Product 5], in the series on HUMAN […] HOC, the IC50 is no less than 25 µg/mL.

As to `COc1ccc(C#CC/C=C/c2ccccc2)cc1` [Product 6], the IC50 was 60 to 100 µg/mL (≈ 242 to 403 µM) in series [2] and 10 to 20 µg/mL (≈ 40.3 to 80.5 µM) in the series on HUMAN […] HOC.

Turning to `C(#Cc1ccc2c(c1)OCO2)C/C=C/c1ccc2c(c1)OCO2` [Product 7], in the series on MOUSE SARCOMA M(52)B, the IC50 lay within 60 to 80 µg/mL (≈ 196 to 261 µM).

Regarding `COc1ccc(C#CC/C=C/c2ccc(OC)c(OC)c2)cc1OC` [Product 8], the IC50 in series [2] is 60 to 100 µg/mL (≈ 177 to 296 µM); in the series with P27-HUMAN MESOTHELIOMA it was 40 to 60 µg/mL (≈ 118 to 177 µM); with MOUSE SARCOMA M(52)B, 60 to 80 µg/mL (≈ 177 to 236 µM).

Consider `COc1ccc(C#CC/C=C/c2ccccc2)cc1OC` [Product 9], for which the IC50 in series [2] was 60 to 100 µg/mL (≈ 216 to 359 µM).

Consider `Brc1ccc(C#CC/C=C/c2ccccc2)cc1` [Product 10], for which the IC50 in series [2] was in the range of 25 to 50 µg/mL (≈ 84.1 to 168 µM).

On to `OC(CCl)CC#Cc1ccccc1` (centres unmarked) [Product 11], for which the IC50 in series [2] lay within 25 to 50 µg/mL (≈ 128 to 257 µM). For the same compound, the MTD at 168 h in the series “Acute toxicity in mice” is no less than 1000 mg/kg.

Turning to `C=CCC#CCOC1CCCCO1` (centres unmarked) [Product 13], the IC50 in series [2] was in the range of 50 to 100 µg/mL (≈ 277 to 555 µM).

As to `COc1ccc(C#CC(O)/C=C/c2ccco2)cc1OC` (centres unmarked) [Product 15], the IC50 in series [2] lay within 25 to 50 µg/mL (≈ 87.9 to 176 µM).

`OC(C#Cc1ccccc1)/C=C/c1ccccc1` (centres unmarked) [Product 16]: the IC50 was 12.5 to 25 µg/mL (≈ 53.4 to 107 µM) in series [1]; 20 to 50 µg/mL (≈ 85.4 to 213 µM) in the series with MOUSE MELANOMA B16-BL6; 25 to 50 µg/mL (≈ 107 to 213 µM) in series [2]; 25 to 50 µg/mL (≈ 107 to 213 µM) in the series on P27-HUMAN MESOTHELIOMA; 20 to 40 µg/mL (≈ 85.4 to 171 µM) in the series with MOUSE SARCOMA M(52)B. The MTD at 168 h in the series “Acute toxicity in rats” and in “Acute toxicity in mice” was 500 mg/kg in each case.

Take `OC(C#Cc1ccccc1)/C=C/c1ccco1` (centres unmarked) [Product 17]: the values for the IC50 (in series [2]; with P27-HUMAN MESOTHELIOMA) were 20 to 25 µg/mL (≈ 89.2 to 111 µM) and 20 to 50 µg/mL (≈ 89.2 to 223 µM), respectively. The MTD at 168 h in the series “Acute toxicity in rats” and in “Acute toxicity in mice” was 500 mg/kg in each case.

Consider `COc1ccc(C#CC(O)/C=C/c2ccccc2)cc1OC` (centres unmarked) [Product 18], for which the IC50 in [2] lay in the range of 25 to 50 µg/mL (≈ 84.9 to 170 µM).

On to `OC(C#Cc1ccccc1)C=C(Cl)c1ccccc1` (centres unmarked) [Product 19], for which, in series [2], the IC50 lay within 20 to 40 µg/mL (≈ 74.4 to 149 µM). For the same compound, in “Acute toxicity in mice”, the MTD at 168 h was 250 mg/kg.

As for `C=CC(O)C#Cc1ccccc1` (centres unmarked) [Product 20], in [2], the IC50 fell in the range of 25 to 50 µg/mL (≈ 158 to 316 µM).

Take `C/C=C/C(O)C#CCOC1CCCCO1` (centres unmarked) [Product 21]: the IC50 in [2] lay in the range of 25 to 50 µg/mL (≈ 119 to 238 µM).

Consider `CCOC(=O)C(=Cc1ccccc1)CC#Cc1ccccc1` [Product 23], for which the IC50 in [1] was in the range of 25 to 50 µg/mL (≈ 86.1 to 172 µM); in the series on CHANG CO[…] No. CCL20.2 it was 25 to 75 µg/mL (≈ 86.1 to 258 µM); in [2], 60 to 100 µg/mL (≈ 207 to 344 µM); in the series on MOUSE SARCOMA M(52)B it was 75 to 100 µg/mL (≈ 258 to 344 µM); with HUMAN […] HOC, 20 to 50 µg/mL (≈ 68.9 to 172 µM). In addition, the MTD at 168 h in the series “Acute toxicity in mice” came to 750 mg/kg.

As to `C(#Cc1ccccc1)CC1CO1` (centres unmarked) [Product 24], the IC50 in series [2] is 25 to 50 µg/mL (≈ 158 to 316 µM).

For the compound `O=C(C#Cc1ccccc1)/C=C/c1ccccc1` [Product 25], the IC50 was in the range of 12.5 to 25 µg/mL (≈ 53.8 to 108 µM) in the series with MOUSE MELANOMA B16-BL6, 2.5 to 10 µg/mL (≈ 10.8 to 43.1 µM) in the series with CHANG CO[…] No. CCL20.2 and 5 to 10 µg/mL (≈ 21.5 to 43.1 µM) in [2].

For `C=CC(=O)C#Cc1ccccc1` [Product 26], the IC50 in the series on CHANG CO[…] No. CCL20.2 was in the range of 2.5 to 10 µg/mL (≈ 16 to 64 µM); in [2] it was 20 to 40 µg/mL (≈ 128 to 256 µM).

As to `C/C=C/C(O)C#CCO` (centres unmarked) [Product 29], the IC50 in series [2] was 50 µg/mL (≈ 396 µM).

As to `C=CCC#CCO` [Product 30], the IC50 in [2] came out at 50 µg/mL (≈ 520 µM).

In the case of `OCC#CC/C=C/c1ccccc1` [Product 31], the IC50 in [2] was 25 to 50 µg/mL (≈ 145 to 290 µM).
